# Experimental data from patent US11219221B2 (FarmHannong Co., Ltd., priority 2017, dated 2022).
# Tested on: CyPPO16 wild type (SEQ ID NO: 1) in PPO-deficient E. coli BT3(ΔPPO)
# Type: cell-based
# Details: LB agar, 37° C., light, 16 to 20 hours
# Protocol: (§1) The mutated CyPPO gene obtained from the Example 2 was transformed to BT3 (ΔPPO) strain which is deficient of PPO activity and cultured in LB media with PPO-inhibiting herbicide, thereby examining whether growth of transformed BT3 was not inhibited.
# (§2) BT3 competent cells were transformed with the pET303-CyPPO16 and pET303-CyPPO17 plasmids and those with a mutation(s) constructed in Example 2 respectively, and were cultured in LB agar media containing carbenicillin (Gold Biotechnology, Co., Ltd.).
# (§3) Single colony of E. coli transformed with each CyPPO gene was cultured in 3 ml of LB broth containing carbenicillin overnight, and then was subcultured until absorbance (0D600) reached 0.5 to 1. Then, it was diluted with LB broth to OD600=0.5. Again, the diluted solution was serially diluted 4 times by a factor of one tenth.
# (§4) The LB agar media (LB 25 g/l, Bacto agar 15 g/l) containing carbenicillin (100 μg/ml) and 0 to 4,000 μM of various herbicides dissolved in DMSO was prepared. Next, 10 μl of each diluted solution was dropped on the plate and cultured at 37° C. under light (Tables 7 and 9, FIGS. 2 to 6, and 18 to 22) or dark (Tables 8 and 10, FIGS. 7 to 17, and 23 to 33) for 16 to 20 hours. Then, extent of tolerance was evaluated.
# (§5) The extent of herbicide tolerance of the mutated genes was evaluated by comparing that of mutated genes with that of wild type. The relative tolerance was represented with “+” as a factor of 10 times. Evaluation result was listed in Tables 7 to10 and FIGS. 2 to 33:
# (§6) In Tables 7 to 10, tolerance level was presented as of tolerance of wild type and of variants equivalent to that of wild type, and was done as ‘+’ per each 10 fold resistance until ‘+++++’ as maximal resistance. (Tolerance level was evaluated by relative growth level of variants to that of wild type in the media containing highest concentration of herbicide; ‘+’=1-9 fold higher tolerance, ‘++’=10-99 fold higher tolerance, ‘+++’=100-999 fold higher tolerance, ‘++++’=1,000-9,999 fold higher tolerance, ‘+++++’=more than 10,000 fold higher tolerance)
row,SMILES,Herbicide tolerance (relative to wild type)
1,CC(C)=C1OC(=O)N(c2cc(OC3CCCC3)c(Cl)cc2F)C1=O [pentoxazone],−
2,CCOC(=O)COc1cc(-c2nn(C)c(OC(F)F)c2Cl)c(F)cc1Cl [pyraflufen-ethyl],−

# Tested on: CyPPO17 wild type (SEQ ID NO: 3) in PPO-deficient E. coli BT3(ΔPPO)
# Type: cell-based
# Details: LB agar, 37° C., light, 16 to 20 hours
# Protocol: as §1, §2, §3, §4, §5, §6
row,SMILES,Herbicide tolerance (relative to wild type)
1,CC(C)=C1OC(=O)N(c2cc(OC3CCCC3)c(Cl)cc2F)C1=O [pentoxazone],−
2,CCOC(=O)COc1cc(-c2nn(C)c(OC(F)F)c2Cl)c(F)cc1Cl [pyraflufen-ethyl],−

# Tested on: CyPPO16 (SEQ ID NO: 1) variant F360C in PPO-deficient E. coli BT3(ΔPPO)
# Type: cell-based
# Details: LB agar, 37° C., light, 16 to 20 hours
# Protocol: as §1, §2, §3, §4
# (§7) The extent of herbicide tolerance of the mutated genes was evaluated by comparing that of mutated genes with that of wild type. The relative tolerance was represented with “+” as a factor of 10 times.
# (§8) In Tables 7 to 10, tolerance level was presented as of tolerance of wild type and of variants equivalent to that of wild type, and was done as ‘+’ per each 10 fold resistance until ‘+++++’ as maximal resistance.
row,SMILES,Herbicide tolerance (relative to wild type)
1,CC(C)=C1OC(=O)N(c2cc(OC3CCCC3)c(Cl)cc2F)C1=O [pentoxazone],++ (10-99 fold higher tolerance)
2,CCOC(=O)COc1cc(-c2nn(C)c(OC(F)F)c2Cl)c(F)cc1Cl [pyraflufen-ethyl],+++ (100-999 fold higher tolerance)

# Tested on: CyPPO17 (SEQ ID NO: 3) variant F359L in PPO-deficient E. coli BT3(ΔPPO)
# Type: cell-based
# Details: LB agar, 37° C., light, 16 to 20 hours
# Protocol: as §1, §2, §3, §4, §7, §8
row,SMILES,Herbicide tolerance (relative to wild type)
1,CC(C)=C1OC(=O)N(c2cc(OC3CCCC3)c(Cl)cc2F)C1=O [pentoxazone],+ (1-9 fold higher tolerance)
2,CCOC(=O)COc1cc(-c2nn(C)c(OC(F)F)c2Cl)c(F)cc1Cl [pyraflufen-ethyl],++ (10-99 fold higher tolerance)

# Tested on: CyPPO17 (SEQ ID NO: 3) variant A166C in PPO-deficient E. coli BT3(ΔPPO)
# Type: cell-based
# Details: LB agar, 37° C., light, 16 to 20 hours
# Protocol: as §1, §2, §3, §4, §7, §8
row,SMILES,Herbicide tolerance (relative to wild type)
1,CC(C)=C1OC(=O)N(c2cc(OC3CCCC3)c(Cl)cc2F)C1=O [pentoxazone],+ (1-9 fold higher tolerance)
2,CCOC(=O)COc1cc(-c2nn(C)c(OC(F)F)c2Cl)c(F)cc1Cl [pyraflufen-ethyl],++ (10-99 fold higher tolerance)

# Tested on: CyPPO16 (SEQ ID NO: 1) variant F360M in PPO-deficient E. coli BT3(ΔPPO)
# Type: cell-based
# Details: LB agar, 37° C., light, 16 to 20 hours
# Protocol: as §1, §2, §3, §4, §7, §8
row,SMILES,Herbicide tolerance (relative to wild type)
1,CC(C)=C1OC(=O)N(c2cc(OC3CCCC3)c(Cl)cc2F)C1=O [pentoxazone],+ (1-9 fold higher tolerance)
2,CCOC(=O)COc1cc(-c2nn(C)c(OC(F)F)c2Cl)c(F)cc1Cl [pyraflufen-ethyl],++ (10-99 fold higher tolerance)

# Tested on: CyPPO17 (SEQ ID NO: 3) variant F359M in PPO-deficient E. coli BT3(ΔPPO)
# Type: cell-based
# Details: LB agar, 37° C., light, 16 to 20 hours
# Protocol: as §1, §2, §3, §4, §7, §8
row,SMILES,Herbicide tolerance (relative to wild type)
1,CC(C)=C1OC(=O)N(c2cc(OC3CCCC3)c(Cl)cc2F)C1=O [pentoxazone],++ (10-99 fold higher tolerance)
2,CCOC(=O)COc1cc(-c2nn(C)c(OC(F)F)c2Cl)c(F)cc1Cl [pyraflufen-ethyl],++ (10-99 fold higher tolerance)

# Tested on: CyPPO16 (SEQ ID NO: 1) variant F360V in PPO-deficient E. coli BT3(ΔPPO)
# Type: cell-based
# Details: LB agar, 37° C., light, 16 to 20 hours
# Protocol: as §1, §2, §3, §4, §7, §8
row,SMILES,Herbicide tolerance (relative to wild type)
1,CC(C)=C1OC(=O)N(c2cc(OC3CCCC3)c(Cl)cc2F)C1=O [pentoxazone],+ (1-9 fold higher tolerance)
2,CCOC(=O)COc1cc(-c2nn(C)c(OC(F)F)c2Cl)c(F)cc1Cl [pyraflufen-ethyl],++ (10-99 fold higher tolerance)

# Tested on: CyPPO16 (SEQ ID NO: 1) variant F360I in PPO-deficient E. coli BT3(ΔPPO)
# Type: cell-based
# Details: LB agar, 37° C., light, 16 to 20 hours
# Protocol: as §1, §2, §3, §4, §7, §8
row,SMILES,Herbicide tolerance (relative to wild type)
1,CC(C)=C1OC(=O)N(c2cc(OC3CCCC3)c(Cl)cc2F)C1=O [pentoxazone],+ (1-9 fold higher tolerance)
2,CCOC(=O)COc1cc(-c2nn(C)c(OC(F)F)c2Cl)c(F)cc1Cl [pyraflufen-ethyl],++ (10-99 fold higher tolerance)

# Tested on: CyPPO17 (SEQ ID NO: 3) variant V304M in PPO-deficient E. coli BT3(ΔPPO)
# Type: cell-based
# Details: LB agar, 37° C., light, 16 to 20 hours
# Protocol: as §1, §2, §3, §4, §7, §8
row,SMILES,Herbicide tolerance (relative to wild type)
1,CC(C)=C1OC(=O)N(c2cc(OC3CCCC3)c(Cl)cc2F)C1=O [pentoxazone],+ (1-9 fold higher tolerance)
2,CCOC(=O)COc1cc(-c2nn(C)c(OC(F)F)c2Cl)c(F)cc1Cl [pyraflufen-ethyl],+ (1-9 fold higher tolerance)

# Tested on: CyPPO16 (SEQ ID NO: 1) variant A162L in PPO-deficient E. coli BT3(ΔPPO)
# Type: cell-based
# Details: LB agar, 37° C., light, 16 to 20 hours
# Protocol: as §1, §2, §3, §4, §7, §8
row,SMILES,Herbicide tolerance (relative to wild type)
1,CC(C)=C1OC(=O)N(c2cc(OC3CCCC3)c(Cl)cc2F)C1=O [pentoxazone],++ (10-99 fold higher tolerance)
2,CCOC(=O)COc1cc(-c2nn(C)c(OC(F)F)c2Cl)c(F)cc1Cl [pyraflufen-ethyl],+++ (100-999 fold higher tolerance)

# Tested on: CyPPO17 (SEQ ID NO: 3) variant A166L in PPO-deficient E. coli BT3(ΔPPO)
# Type: cell-based
# Details: LB agar, 37° C., light, 16 to 20 hours
# Protocol: as §1, §2, §3, §4, §7, §8
row,SMILES,Herbicide tolerance (relative to wild type)
1,CC(C)=C1OC(=O)N(c2cc(OC3CCCC3)c(Cl)cc2F)C1=O [pentoxazone],++ (10-99 fold higher tolerance)
2,CCOC(=O)COc1cc(-c2nn(C)c(OC(F)F)c2Cl)c(F)cc1Cl [pyraflufen-ethyl],++ (10-99 fold higher tolerance)

# Tested on: CyPPO17 (SEQ ID NO: 3) variant F359C in PPO-deficient E. coli BT3(ΔPPO)
# Type: cell-based
# Details: LB agar, 37° C., light, 16 to 20 hours
# Protocol: as §1, §2, §3, §4, §7, §8
row,SMILES,Herbicide tolerance (relative to wild type)
1,CC(C)=C1OC(=O)N(c2cc(OC3CCCC3)c(Cl)cc2F)C1=O [pentoxazone],+ (1-9 fold higher tolerance)
2,CCOC(=O)COc1cc(-c2nn(C)c(OC(F)F)c2Cl)c(F)cc1Cl [pyraflufen-ethyl],+ (1-9 fold higher tolerance)

# Tested on: CyPPO16 (SEQ ID NO: 1) variant A162C in PPO-deficient E. coli BT3(ΔPPO)
# Type: cell-based
# Details: LB agar, 37° C., light, 16 to 20 hours
# Protocol: as §1, §2, §3, §4, §7, §8
row,SMILES,Herbicide tolerance (relative to wild type)
1,CC(C)=C1OC(=O)N(c2cc(OC3CCCC3)c(Cl)cc2F)C1=O [pentoxazone],++ (10-99 fold higher tolerance)
2,CCOC(=O)COc1cc(-c2nn(C)c(OC(F)F)c2Cl)c(F)cc1Cl [pyraflufen-ethyl],+++ (100-999 fold higher tolerance)

# Tested on: CyPPO16 (SEQ ID NO: 1) variant F360L in PPO-deficient E. coli BT3(ΔPPO)
# Type: cell-based
# Details: LB agar, 37° C., light, 16 to 20 hours
# Protocol: as §1, §2, §3, §4, §7, §8
row,SMILES,Herbicide tolerance (relative to wild type)
1,CC(C)=C1OC(=O)N(c2cc(OC3CCCC3)c(Cl)cc2F)C1=O [pentoxazone],+ (1-9 fold higher tolerance)
2,CCOC(=O)COc1cc(-c2nn(C)c(OC(F)F)c2Cl)c(F)cc1Cl [pyraflufen-ethyl],++ (10-99 fold higher tolerance)

# Tested on: CyPPO17 (SEQ ID NO: 3) variant F359I in PPO-deficient E. coli BT3(ΔPPO)
# Type: cell-based
# Details: LB agar, 37° C., light, 16 to 20 hours
# Protocol: as §1, §2, §3, §4, §7, §8
row,SMILES,Herbicide tolerance (relative to wild type)
1,CC(C)=C1OC(=O)N(c2cc(OC3CCCC3)c(Cl)cc2F)C1=O [pentoxazone],++ (10-99 fold higher tolerance)
2,CCOC(=O)COc1cc(-c2nn(C)c(OC(F)F)c2Cl)c(F)cc1Cl [pyraflufen-ethyl],++ (10-99 fold higher tolerance)

# Tested on: CyPPO16 (SEQ ID NO: 1) variant V305M in PPO-deficient E. coli BT3(ΔPPO)
# Type: cell-based
# Details: LB agar, 37° C., light, 16 to 20 hours
# Protocol: as §1, §2, §3, §4, §7, §8
row,SMILES,Herbicide tolerance (relative to wild type)
1,CC(C)=C1OC(=O)N(c2cc(OC3CCCC3)c(Cl)cc2F)C1=O [pentoxazone],+ (1-9 fold higher tolerance)
2,CCOC(=O)COc1cc(-c2nn(C)c(OC(F)F)c2Cl)c(F)cc1Cl [pyraflufen-ethyl],+++ (100-999 fold higher tolerance)
